In PubChem BioAssay (NCI) one finds TGI data, which are given here for five compounds.

What is called TGI is the concentration at which net growth stops. High values mean less potent growth arrest, low ones more potent growth arrest.

Among the test systems are PC-3 prostate; SN12C renal; MALME-3M melanoma; SF-268 CNS; SK-OV-3 ovarian; OVCAR-3 ovarian; NCI-H23 lung; MOLT-4 leukemia; SW-620 colon; SNB-19 CNS.
What all share (experiment): DTP human tumour cell line panel, 48 h

Molecules are shown by their SMILES.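 A five-concentration, 48-hour dose response in 96-well plates underlies each endpoint, interpolated linearly between surrounding concentrations. TGI: total growth inhibition.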

On to `O=C1Cc2c([nH]c3ccc(C(=O)O)cc23)-c2ccccc2N1`, for which the TGI in the assay with PC-3 prostate, with SN12C renal, in the assay with MALME-3M melanoma, in the assay on SF-268 CNS, with SK-OV-3 ovarian and in the assay with OVCAR-3 ovarian was > 100 µM each time. Also, the TGI in the assay on NCI-H23 lung, in the assay with MOLT-4 leukemia, in the assay on SW-620 colon and in the assay with SNB-19 CNS was > 100 µM each time.

For the compound `COC(=O)C1CCC(=O)N1C(c1ccc2c(c1)OCO2)c1cc(OC)c(OC)c(OC)c1` (stereo not given), the TGI in the assay with PC-3 prostate, with SN12C renal, in the assay with MALME-3M melanoma, in the assay on SF-268 CNS, in the assay on SK-OV-3 ovarian and with OVCAR-3 ovarian was > 100 µM in each case. In addition, the TGI with NCI-H23 lung, in the assay on MOLT-4 leukemia, with SW-620 colon and in the assay on SNB-19 CNS was > 100 µM each time.

Take `Cc1cc2c(cc1C)[n+](=O)c(C(=O)c1ccccc1)c(C(F)(F)F)n2[O-]`: the TGI with PC-3 prostate was 9.19 µM; in the assay on SN12C renal, 10.2 µM; with MALME-3M melanoma, 9.89 µM; in the assay on SF-268 CNS, 7.71 µM; in the assay with SK-OV-3 ovarian it was > 28.8 µM; in the assay with OVCAR-3 ovarian, 3.8 µM. The TGI in the assay with NCI-H23 lung is 6.78 µM; with MOLT-4 leukemia, > 28.3 µM; with SW-620 colon it was 21.2 µM; with SNB-19 CNS, 15.5 µM.

For the compound `COc1ccc(CNc2cc(=O)n(C)c(=O)[nH]2)cc1`, the TGI with PC-3 prostate, with SN12C renal, in the assay on MALME-3M melanoma, in the assay with SF-268 CNS, in the assay on SK-OV-3 ovarian and in the assay on OVCAR-3 ovarian was > 100 µM in each case. For the same compound, the TGI with NCI-H23 lung, in the assay on MOLT-4 leukemia, in the assay with SW-620 colon and in the assay on SNB-19 CNS was > 100 µM each time.

On to `O=c1[nH]nc(-c2ccccc2)n1O`, for which the TGI in the assay on PC-3 prostate, with SN12C renal, in the assay with MALME-3M melanoma, in the assay with SF-268 CNS, in the assay with SK-OV-3 ovarian and in the assay with OVCAR-3 ovarian was > 100 µM each time. The TGI with NCI-H23 lung, with MOLT-4 leukemia, with SW-620 colon and in the assay on SNB-19 CNS was > 100 µM throughout.
